Assay results from ChEMBL document CHEMBL1240300, “Diversity-oriented synthesis: exploring the intersections between chemistry and biology” (Nat Chem Biol, 2005).

How the values were obtained:
[1] = Binding affinity to yeast Ure2p; parameters: species or system Saccharomyces cerevisiae
Histone deacetylase = test: Inhibition of HDAC in human A549 cells assessed as induction of histone acetylation by fluorescence microscopy; type: cell-based
C3H 10T1/2 = test: Induction of osteogenesis in mouse C3H10T1/2 cells assessed as induction of osteoblast specific marker alkaline phosphatase by immunofluorescence method; type: functional, cell-based
[2] = biological target: T1, Glycogen synthase kinase-3 beta (Mus musculus, UniProt Q9WV60); test: Inhibition of GSK-3 beta in mouse D3 cells; type: cell-based
T1 sequence (Q9WV60 whole entry): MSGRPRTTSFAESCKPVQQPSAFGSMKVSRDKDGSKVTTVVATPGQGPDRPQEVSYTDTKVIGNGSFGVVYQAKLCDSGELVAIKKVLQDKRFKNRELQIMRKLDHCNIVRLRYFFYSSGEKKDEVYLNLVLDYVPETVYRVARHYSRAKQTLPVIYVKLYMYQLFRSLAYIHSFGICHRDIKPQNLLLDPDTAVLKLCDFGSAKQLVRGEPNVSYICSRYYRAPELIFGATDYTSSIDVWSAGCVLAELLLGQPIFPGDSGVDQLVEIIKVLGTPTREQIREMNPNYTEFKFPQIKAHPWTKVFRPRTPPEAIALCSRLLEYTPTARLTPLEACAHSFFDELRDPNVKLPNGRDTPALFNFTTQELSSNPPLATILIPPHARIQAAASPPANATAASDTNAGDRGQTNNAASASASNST

[3] = biological target: T1, Glycogen synthase kinase-3 beta; test: Inhibition of GSK-3 beta in mouse D3 cells assessed as induction of neuron specific marker microtubule-associated protein 2 by immunofluorescence method; type: cell-based
[4] = biological target: T1, Glycogen synthase kinase-3 beta; test: Inhibition of GSK-3 beta in mouse D3 cells assessed as induction of neuron specific marker neurofilament-M by immunofluorescence method; type: cell-based
[5] = biological target: T1, Glycogen synthase kinase-3 beta; test: Inhibition of GSK-3 beta in mouse D3 cells assessed as induction of neuron specific marker beta3-tubulin by immunofluorescence method; type: cell-based
[6] = biological target: Myc proto-oncogene protein/Transcription factor AP-1 (Gallus gallus, UniProt P01109+P18870); test: Inhibition of Myc-Jun protein - protein interaction in chicken embryo fibroblasts assessed as inhibition of cell focus formation11
Chain of Myc proto-oncogene protein/Transcription factor AP-1 (P18870 whole entry): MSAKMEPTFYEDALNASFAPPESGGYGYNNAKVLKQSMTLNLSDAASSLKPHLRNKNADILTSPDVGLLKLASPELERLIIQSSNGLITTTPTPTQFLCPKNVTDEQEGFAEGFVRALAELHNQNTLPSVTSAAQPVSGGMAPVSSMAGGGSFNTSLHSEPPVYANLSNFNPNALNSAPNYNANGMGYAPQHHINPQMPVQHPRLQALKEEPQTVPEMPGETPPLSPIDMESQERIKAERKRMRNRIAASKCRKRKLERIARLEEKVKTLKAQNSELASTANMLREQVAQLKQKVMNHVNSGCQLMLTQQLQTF
Chain of Myc proto-oncogene protein/Transcription factor AP-1 (P01109 whole entry): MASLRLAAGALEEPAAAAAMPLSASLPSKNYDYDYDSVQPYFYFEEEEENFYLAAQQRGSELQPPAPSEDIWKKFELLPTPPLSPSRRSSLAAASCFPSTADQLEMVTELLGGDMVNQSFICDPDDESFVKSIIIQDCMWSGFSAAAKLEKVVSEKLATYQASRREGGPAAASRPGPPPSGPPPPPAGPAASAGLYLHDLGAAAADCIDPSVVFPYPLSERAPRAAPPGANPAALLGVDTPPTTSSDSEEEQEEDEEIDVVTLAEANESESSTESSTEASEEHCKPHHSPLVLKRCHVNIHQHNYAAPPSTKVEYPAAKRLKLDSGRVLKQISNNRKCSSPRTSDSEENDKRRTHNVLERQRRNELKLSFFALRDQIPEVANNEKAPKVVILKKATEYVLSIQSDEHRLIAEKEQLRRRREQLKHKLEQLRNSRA

[7] = biological target: T1, Glycogen synthase kinase-3 beta; test: Binding affinity to GSK-3 beta in mouse D3 cells; type: cell-based
[8] = Induction of cardiomyogenesis in mouse D3 cells assessed as induction of cadiomyocyte specific marker myosin heavy chain by immunofluorescence method; type: functional, cell-based
[9] = Induction of cardiomyogenesis in mouse D3 cells assessed as induction of cadiomyocyte specific marker MEF2 by immunofluorescence method; type: functional, cell-based

NCc1ccc([C@H]2O[C@@H](CSc3nc(-c4ccccc4)c(-c4ccccc4)o3)[C@H](c3ccccc3)[C@@H](c3ccc(CO)cc3)O2)cc1 [URETUPAMINE A]
Kd [1]: 18.1 µM

Nc1ccccc1NC(=O)CCCCCC(=O)Nc1cccc([C@@H]2O[C@H](CN3CCN(Cc4ccccc4)CC3)C[C@H](c3ccc(CO)cc3)O2)c1 [HISTACIN]
EC50 (Histone deacetylase): 34 µM

c1ccc2c(Oc3nc(Nc4ccc(N5CCOCC5)cc4)c4ncn(C5CCCCC5)c4n3)cccc2c1 [PURMORPHAMINE]
EC50 (C3H 10T1/2): 1 µM

Nc1cccc(-c2cc3c(Oc4cccc(O)c4)ncnc3[nH]2)c1
Kd [2]: 0.126 µM | EC50 [3]: 1 µM | EC50 [4]: 1 µM | EC50 [5]: 1 µM | IC50 [6]: 15 µM | IC50 [7]: 0.03 µM

NCc1ccc([C@H]2O[C@@H](CSc3nc(-c4ccccc4)c(-c4ccccc4)o3)C[C@@H](c3ccc(CO)cc3)O2)cc1 [URETUPAMINE B]
Kd [1]: 7.5 µM

COc1ccc(Nc2nccc(NCCO)n2)cc1 [CARDIOGENOL C]
EC50 [8]: 0.1 µM | EC50 [9]: 0.1 µM
